75 compounds from the OPERA property sets (Mansouri et al. 2018) can be followed below.

SMILES strings stand for the structures.

Details in one data set: not given
As to `CCN1C[C@]2(COC)CCC(O)[C@]34C1C(O)([C@@H](OC)[C@H]23)C1(O)C[C@H](OC)[C@H]2C[C@@H]4[C@@H]1[C@H]2OC` (stereo partly drawn), the melting point was 214 °C.
`Nc1ccc(F)c([N+](=O)[O-])c1`: the melting point stood at 97.5 °C.
As for `C=CCc1ccc2c(c1)OCO2`, the boiling point was determined as 234 °C, the log10 Koc (L/kg) stood at 2.83 and the melting point was determined as 11.2 °C.
Turning to `C#CC(O)CCC` (stereo not drawn), the boiling point stood at 142 °C and the melting point is -80 °C.
`COc1ccc(Cl)cc1`: the boiling point came to 198 °C.
On the same count and under the same terms, as for `CC1CCSC1` (stereo not drawn), the figure is 139 °C.
Regarding `CCCCOCC(C)O` (stereo not drawn), the boiling point is 172 °C and the ready biodegradability result is reported as “readily biodegradable”.
Compound `O=C1C=CC(=O)c2c(O)cccc21` returned a melting point of 155 °C.
For the compound `Clc1nc(Cl)c(Cl)c(Cl)c1Cl`, the log10 vapour pressure (mmHg) was -1.85 and the melting point is 126 °C.
`CCOc1ccccc1N` returned a boiling point of 232 °C.
`CCCCCC(=O)OCCC` returned a boiling point of 187 °C and a melting point of -68.7 °C.
On to `Cc1ccc2ccc(=O)oc2c1`, for which the melting point amounted to 128 °C.
Compound `CCN(CC)C(=O)[C@@H]1C=C2c3cccc4[nH]c(Br)c(c34)C[C@H]2N(C)C1` displayed a melting point of 124 °C.
The compound `CC(=O)c1ccc(C)c(C)c1` displayed a boiling point of 246 °C and a melting point of -3 °C.
Turning to `C#CCC`, the boiling point is 8 °C, the log10 vapour pressure (mmHg) is 3.15 and the melting point was -126 °C.
The compound `CC(=O)OC(C)C#N` (stereo not drawn) yielded a boiling point of 172 °C and a melting point of -75 °C.
`NS(=O)(=O)c1ccc([N+](=O)[O-])cc1` yielded a melting point of 179 °C.
Compound `CCCCBr` showed a boiling point of 101 °C, a log10 vapour pressure (mmHg) of 1.62 and a melting point of -112 °C.
Turning to `CCOC(=O)C(F)Cl` (stereo not drawn), the boiling point stood at 129 °C.
For the compound `N[C@@H](CC(=O)O)C(=O)O` (racemic), the melting point came to 272 °C.
On the same count and under the same terms, as for `NNc1nncc2ccccc12`, the figure is 172 °C.
Turning to `CC(=O)Nc1cccc(Br)c1`, the log10 Koc (L/kg) came out at 2.01.
In turn, `CCN(CC)CCCN(c1ccccc1)C1Cc2ccccc2C1` displayed a melting point of 120 °C.
For the compound `CCCCCCCCCCOC(=O)Cl`, the boiling point amounted to 220 °C and the log10 vapour pressure (mmHg) is -1.59.
In turn, `NNc1ccccc1` yielded a boiling point of 244 °C, a log10 vapour pressure (mmHg) of -1.58 and a melting point of 19.6 °C.
In the case of `Clc1cnc(Cl)c(Cl)c1`, the boiling point stood at 219 °C, the melting point was 49 °C and the ready biodegradability result is “not readily biodegradable”.
The compound `CN(C)CN(C)C` registered a boiling point of 83 °C.
On the same count and under the same terms, the figure for `CCOC(=O)c1ccc(Cl)cc1` is 238 °C.
`O=[N+]([O-])c1ccc2ccccc2c1`: the boiling point stood at 314 °C and the melting point was 79 °C.
Take `Cc1cc(C)c([N+](=O)[O-])cc1C`: the boiling point was found to be 265 °C and the melting point came to 71 °C.
Take `O=C(O)CCCCCCCCCCO`: the melting point came to 65.5 °C.
`C[C@H](N)CCc1ccccc1`: the boiling point was found to be 223 °C and the melting point came out at 143 °C.
`CC(N)Cc1ccc(O)cc1` (stereo not drawn) gave a melting point of 126 °C.
Still for that read-out and setting: the figure for `CC(C)[C@@H](N)C(=O)O` is 315 °C.
The same measure, in the same setting: the figure for `COc1cc(CCO)ccc1O` is 41 °C.
As to `CCC(O)(CC)C(C)C`, the boiling point was found to be 160 °C.
With `CNC(C)=O`, the boiling point was found to be 205 °C, the log10 vapour pressure (mmHg) is -0.356, the melting point came to 28 °C and the ready biodegradability result is given as “readily biodegradable”.
On to `CCOc1ccc2c3c1O[C@H]1[C@@H](O)C=C[C@H]4[C@@H](C2)N(C)CC[C@@]341`, for which the melting point is 200 °C.
For the compound `CC(C(C)(C)C)C(C)(C)C`, the boiling point came to 159 °C and the melting point is -38.7 °C.
For the compound `ClCc1ccccc1Cl`, the boiling point worked out at 217 °C, the melting point was -17 °C and the ready biodegradability entry was “not readily biodegradable”.
In turn, `CC[C@@H]1CCC[C@H]1C` displayed a boiling point of 125 °C, a log10 vapour pressure (mmHg) of 1.3 and a melting point of -106 °C.
As to `Cc1ccc(Cl)cc1Cl`, the boiling point is 201 °C, the log10 vapour pressure (mmHg) was -0.339, the melting point was -13.5 °C and the ready biodegradability result is “not readily biodegradable”.
`Cc1cccc(CN)c1` returned a boiling point of 204 °C.
As for `Cc1cc(C)c(C)c(C)c1C`, the boiling point was determined as 232 °C, the log10 vapour pressure (mmHg) was -1.46 and the melting point stood at 54.5 °C.
In the same order, the values of `CNNC` are 81 °C, 1.84 and -9 °C.
`Cc1ccc(S(=O)(=O)N(C)N=O)cc1` yielded a melting point of 60 °C.
In the case of `C1=NN(c2ccccc2)CC1`, the boiling point turned out to be 273 °C and the melting point was 52 °C.
As to `O=C(O)Cc1ccc(-c2ccccc2)cc1`, the melting point stood at 160 °C.
The same measure, in the same setting: the figure for `Cc1cccc2cc3c(ccc4ccccc43)cc12` is 156 °C.
The compound `Cc1ccc(C)c2occc12` gave a boiling point of 216 °C.
Consider `O=S(=O)(O)c1cccc(S(=O)(=O)O)c1`, for which the ready biodegradability entry is “not readily biodegradable”.
As to `OCc1ccc2ccccc2c1`, the melting point was found to be 81.3 °C.
In turn, `CCC(C)(Cl)CC` returned a boiling point of 116 °C.
Compound `CC1=CCC(C(C)(C)O)CC1` (stereo not drawn) yielded a boiling point of 219 °C, a log10 Henry constant (atm·m³/mol) of -5.65, a log10 vapour pressure (mmHg) of -1.37 and a melting point of 37 °C. Besides, the ready biodegradability entry was “readily biodegradable”.
Regarding `Cc1ccc2c(c1Cl)C(=O)c1ccccc1C2=O`, the melting point is 170 °C.
Compound `CN(C)c1ccccc1N` gave a boiling point of 218 °C.
`c1cc2c3c(c1)CCCN3CCC2` returned a melting point of 40 °C.
On the same count and under the same terms, as for `O=C1NC(=O)C2(CCc3ccccc3C2)N1` (stereo not drawn), the figure is 268 °C.
On to `CCCSP(=O)(OCC)Oc1ccc(Br)cc1Cl` (stereo not drawn), for which the log10 Koc (L/kg) amounted to 3.03 and the log10 vapour pressure (mmHg) was -6.05.
With `COC(=O)[C@H]1[C@H]2C[C@@H]3c4[nH]c5cc(OC)ccc5c4CCN3C[C@H]2C[C@@H](OC(=O)c2cc(OC)c(OC)c(OC)c2)[C@@H]1OC`, the melting point turned out to be 264 °C.
`C=C=CCCl`: the boiling point is 88 °C.
As to `N#Cc1ccc2c(c1)N(CCCN1CCC(O)CC1)c1ccccc1S2`, the melting point came out at 116 °C.
As for `Clc1c(Cl)c(Cl)c2c(c1Cl)Oc1ccccc1O2`, the log10 Henry constant (atm·m³/mol) was -4.7, the log10 Koa is 9.7, the log10 vapour pressure (mmHg) was -7.32 and the melting point was 188 °C.
In the case of `COCC(C)OCC(C)OCC(C)O` (stereo not drawn), the boiling point was determined as 250 °C and the log10 vapour pressure (mmHg) is -1.7.
Compound `CC=CCCc1ccccn1` displayed a boiling point of 216 °C.
The compound `O=C(CO)[C@@H](O)[C@H](O)[C@@H](O)CO` returned a melting point of 165 °C.
The compound `C=CCCCCCCCCC(=O)OCC` yielded a boiling point of 264 °C and a melting point of -38 °C.
For the compound `CC(=O)O.CCCCCCCCCCCCCCCCCC1=NCCN1`, the melting point came out at 65 °C.
On to `C/C=C(/C)c1ccccc1`, for which the boiling point is 195 °C.
Still for that read-out and setting: as for `C=C1C(O)CC2(C(C)C)CC12` (stereo not drawn), the figure is 208 °C.
The same measure, in the same setting: the figure for `CCCCC(CC)C(C)C` (stereo not drawn) is 163 °C.
Turning to `C=C(C)C(=O)C(=CC(=O)O)OC`, the melting point was 83 °C.
Same read-out and setting: the figure for `CC[N+](C)(C)CCOC(=O)C(O)(c1ccccc1)c1ccccc1.[Cl-]` is 213 °C.
Turning to `CC(C)C1NC(=O)NC1=O` (stereo not drawn), the ready biodegradability entry was “not readily biodegradable”.
As to `CCCOc1ccccc1O`, the boiling point came to 227 °C.

The same data set, now with this note: fish.
Take `Clc1c(Cl)c(Cl)c2c(c1Cl)Oc1ccccc1O2`: the log10 BCF worked out at 3.46 and the log10 biotransformation half-life (days) is 1.02.
